Source: ChEMBL document CHEMBL3632475, “Design, Synthesis, and Pharmacological Evaluation of 5,6-Disubstituted Pyridin-2(1H)-one Derivatives as Phosphodiesterase 10A (PDE10A) Antagonists” (J Med Chem, 2015)
Values belong to the molecule of their own block, whether it stands above or below them.

How the values were obtained:
[1] = system: Rattus norvegicus; assay: AUC (0 to t) in Sprague Dawley rat assessed as 6-(2,4-Difluorophenyl)-5-[4-(quinolin-2-ylmethoxy)phenyl]-pyridin-2(1H)-one at 11.04 mg/kg, po measured up to 8 hrs; assay type: ADME, organism-based; set-up: dose 11.04 mg/kg, time < 8 hr, route oral; settings: in vivo
[2] = system: Rattus norvegicus; assay: Tmax in Sprague Dawley rat assessed as 6-(2,4-Difluorophenyl)-5-[4-(quinolin-2-ylmethoxy)phenyl]-pyridin-2(1H)-one at 11.04 mg/kg, po measured up to 8 hrs; assay type: ADME, organism-based; settings: in vivo
[3] = system: Rattus norvegicus; assay: Cmax in Sprague Dawley rat assessed as 6-(2,4-Difluorophenyl)-5-[4-(quinolin-2-ylmethoxy)phenyl]-pyridin-2(1H)-one at 11.04 mg/kg, po measured up to 8 hrs; assay type: ADME, organism-based; set-up: dose 11.04 mg/kg, route oral; settings: in vivo
[4] = system: Rattus norvegicus; assay: Tmax in Sprague Dawley rat assessed as 6-(4-Fluorophenyl)-5-[4-quinolin-2-ylmethoxy)phenyl]-pyridine-2(1H)-one at 11.04 mg/kg, po measured after 8hrs; assay type: ADME, organism-based; settings: in vivo
[5] = system: Rattus norvegicus; assay: Cmax in Sprague Dawley rat assessed as 6-(4-Fluorophenyl)-5-[4-quinolin-2-ylmethoxy)phenyl]-pyridine-2(1H)-one at 11.04 mg/kg, po measured up to 8 hrs; assay type: ADME, organism-based; set-up: dose 11.04 mg/kg, route oral; settings: in vivo
[6] = system: Rattus norvegicus; assay: AUC (0 to t) in Sprague Dawley rat assessed as 6-(4-Fluorophenyl)-5-[4-quinolin-2-ylmethoxy)phenyl]-pyridine-2(1H)-one at 11.04 mg/kg, po measured after 8hrs; assay type: ADME, organism-based; settings: in vivo
[7] = Drug level in intestinal microsomes (unknown origin) treated with 6-(4-Fluorophenyl)-5-[4-quinolin-2-ylmethoxy)phenyl]-pyridine-2(1H)-one incubated for 60 mins measured by LC-MS/MS analysis in presence of UDPGA; assay type: ADME, Intestine
[8] = Drug level in liver microsomes (unknown origin) treated with 6-(4-Fluorophenyl)-5-[4-quinolin-2-ylmethoxy)phenyl]-pyridine-2(1H)-one incubated for 60 mins measured by LC-MS/MS analysis in presence of UDPGA; assay type: ADME
[9] = system: Cynomolgus monkey; assay: AUC (0 to 24 hrs) in cynomolgus monkey assessed as 6-(4-Fluorophenyl)-5-[4-quinolin-2-ylmethoxy)phenyl]-pyridine-2(1H)-one at […], iv; assay type: ADME, organism-based, Macaca fascicularis; set-up: time < 24 hr, dose 1.1 mg/kg, route intravenous; settings: in vivo
[10] = system: Canis familiaris; assay: Tmax in Beagle dog assessed as 6-(4-Fluorophenyl)-5-[4-quinolin-2-ylmethoxy)phenyl]-pyridine-2(1H)-one at 11.04 mg/kg, po; assay type: ADME, organism-based, Canis lupus familiaris; settings: in vivo
[11] = system: Cynomolgus monkey; assay: Tmax in cynomolgus monkey assessed as 6-(4-Fluorophenyl)-5-[4-quinolin-2-ylmethoxy)phenyl]-pyridine-2(1H)-one at 11.04 mg/kg, po; assay type: ADME, organism-based, Macaca fascicularis; settings: in vivo
[12] = system: Cynomolgus monkey; assay: Cmax in cynomolgus monkey assessed as 6-(4-Fluorophenyl)-5-[4-quinolin-2-ylmethoxy)phenyl]-pyridine-2(1H)-one at 11.04 mg/kg, po; assay type: ADME, organism-based, Macaca fascicularis; set-up: dose 11.04 mg/kg, route oral; settings: in vivo
[13] = system: Canis familiaris; assay: Cmax in Beagle dog assessed as 6-(4-Fluorophenyl)-5-[4-quinolin-2-ylmethoxy)phenyl]-pyridine-2(1H)-one at 11.04 mg/kg, po; assay type: ADME, organism-based, Canis lupus familiaris; set-up: dose 11.04 mg/kg, route oral; settings: in vivo
[14] = system: Canis familiaris; assay: AUC (0 to 24 hrs) in Beagle dog assessed as 6-(4-Fluorophenyl)-5-[4-quinolin-2-ylmethoxy)phenyl]-pyridine-2(1H)-one at 11.04 mg/kg, po; assay type: ADME, organism-based, Canis lupus familiaris; set-up: dose 11.04 mg/kg, time < 24 hr, route oral; settings: in vivo
[15] = system: Canis familiaris; assay: AUC (0 to 24 hrs) in Beagle dog assessed as 6-(4-Fluorophenyl)-5-[4-quinolin-2-ylmethoxy)phenyl]-pyridine-2(1H)-one at […], iv; assay type: ADME, organism-based, Canis lupus familiaris; set-up: time < 24 hr, dose 1.1 mg/kg, route intravenous; settings: in vivo
[16] = system: Cynomolgus monkey; assay: AUC (0 to 24 hrs) in cynomolgus monkey assessed as 6-(4-Fluorophenyl)-5-[4-quinolin-2-ylmethoxy)phenyl]-pyridine-2(1H)-one at 11.04 mg/kg, po; assay type: ADME, organism-based, Macaca fascicularis; set-up: time < 24 hr, dose 11.04 mg/kg, route oral; settings: in vivo
[17] = system: Rattus norvegicus; assay: AUC (0 to 24 hrs) in Sprague Dawley rat assessed as 6-(4-Fluorophenyl)-5-[4-quinolin-2-ylmethoxy)phenyl]-pyridine-2(1H)-one at […], iv; assay type: ADME, organism-based; set-up: dose 1.1 mg/kg, time < 24 hr, route intravenous; settings: in vivo
[18] = system: Rattus norvegicus; assay: Tmax in Sprague Dawley rat assessed as 6-Phenyl-5-[4-(qumolm-2-ylmethoxy)phenyl]pyridm-2(1H)-one at 11.04 mg/kg, po measured up to 8 hrs; assay type: ADME, organism-based; settings: in vivo
[19] = system: Rattus norvegicus; assay: Cmax in Sprague Dawley rat assessed as 6-Phenyl-5-[4-(qumolm-2-ylmethoxy)phenyl]pyridm-2(1H)-one at 11.04 mg/kg, po measured up to 8 hrs; assay type: ADME, organism-based; set-up: dose 11.04 mg/kg, route oral; settings: in vivo
[20] = system: Rattus norvegicus; assay: AUC (0 to t) in Sprague Dawley rat assessed as 6-Phenyl-5-[4-(qumolm-2-ylmethoxy)phenyl]pyridm-2(1H)-one at 11.04 mg/kg, po measured up to 8 hrs; assay type: ADME, organism-based; set-up: time < 8 hr, dose 11.04 mg/kg, route oral; settings: in vivo

Structure (SMILES): CC(=O)Oc1ccc(-c2ccc(OCc3ccc4ccccc4n3)cc2)c(-c2ccc(F)cc2F)n1
AUCt [1]: 1764 ng·h/mL
Tmax [2]: 2 h
Cmax [3]: 266 ng/mL

Structure (SMILES): CN(C)C(=O)Oc1ccc(-c2ccc(OCc3ccc4ccccc4n3)cc2)c(-c2ccc(F)cc2)n1
Tmax [4]: 1 h
Cmax [5]: 42 ng/mL
AUCt [6]: 182 ng·h/mL

Structure (SMILES): CC(=O)Oc1ccc(-c2ccc(OCc3ccc4ccccc4n3)cc2)c(-c2ccccc2)n1
Tmax [18]: 1 h
Cmax [19]: 372 ng/mL
AUCt [20]: 1497 ng·h/mL

The remaining lines, values ahead:

Drug metabolism [7]: metabolite_detected
Drug metabolism [8]: metabolite_detected
Structure (SMILES): O=C(O)[C@H]1O[C@@H](Oc2ccc(-c3ccc(OCc4ccc5ccccc5n4)cc3)c(-c3ccc(F)cc3)n2)[C@H](O)[C@@H](O)[C@@H]1O

AUC [9]: 1314 ng·h/mL
Tmax [10]: 1 h
Tmax [11]: 6 h
Cmax [12]: 38 ng/mL
Tmax [4]: 1 h
Cmax [13]: 49 ng/mL
AUC [14]: 555 ng·h/mL
AUC [15]: 841 ng·h/mL
AUC [16]: 345 ng·h/mL
AUC [17]: 492 ng·h/mL
Cmax [5]: 372 ng/mL
AUCt [6]: 2436 ng·h/mL
Structure (SMILES): CC(=O)Oc1ccc(-c2ccc(OCc3ccc4ccccc4n3)cc2)c(-c2ccc(F)cc2)n1
